Data published in ChEMBL document CHEMBL4725381, “Synthesis and activity of isoleucine sulfonamide derivatives as novel botulinum neurotoxin serotype A light chain inhibitors” (Bioorg Med Chem, 2020).
pIC50: −log10 of the molar value. Activity calls are given as the source filed them. The rule behind the calls is not given here.

Experiments:
[1] = target: Botulinum neurotoxin type A (Clostridium botulinum) (UniProt P0DPI0); assay: Inhibition of Clostridium botulinum BoNT/A light chain at 30 uM using SNAPtide as substrate preincubated with enzyme for 2 mins followed by substrate addition and measured for 0-5 mins by FRET assay relative to control
[2] = target: Botulinum neurotoxin type A (Clostridium botulinum, UniProt P0DPI0); assay: Inhibition of Clostridium botulinum BoNT/A light chain using SNAPtide as substrate preincubated with enzyme for 2 mins followed by substrate addition and measured for 0-5 mins by FRET assay
Botulinum neurotoxin type A, sequence (P0DPI0 2-448 limits assumed): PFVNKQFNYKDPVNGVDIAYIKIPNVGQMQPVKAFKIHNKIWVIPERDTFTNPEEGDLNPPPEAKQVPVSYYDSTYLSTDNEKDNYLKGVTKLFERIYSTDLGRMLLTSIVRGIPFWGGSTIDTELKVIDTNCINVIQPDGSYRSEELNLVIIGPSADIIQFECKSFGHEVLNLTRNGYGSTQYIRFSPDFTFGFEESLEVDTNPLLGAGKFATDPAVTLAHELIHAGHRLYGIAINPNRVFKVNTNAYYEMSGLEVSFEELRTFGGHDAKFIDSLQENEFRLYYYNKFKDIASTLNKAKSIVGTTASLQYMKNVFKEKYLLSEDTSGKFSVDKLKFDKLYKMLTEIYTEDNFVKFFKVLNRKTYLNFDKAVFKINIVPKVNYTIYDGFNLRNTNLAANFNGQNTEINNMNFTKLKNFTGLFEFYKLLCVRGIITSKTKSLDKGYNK

Botulinum neurotoxin type A (Clostridium botulinum), sequence (P0DPI0 2-448 limits assumed): as above

Structure (SMILES)	inhibition [1]	pIC50 [2]
CC[C@H](C)[C@H](NS(=O)(=O)c1cccc(-c2cccc(Cl)c2)c1)C(=O)NO	44%	–
CC[C@H](C)[C@H](NS(=O)(=O)c1cccc(-c2ccc(Cl)c(Cl)c2)c1)C(=O)NO	26%	–
CCCC[C@H](NS(=O)(=O)c1cccc(-c2cc3ccccc3o2)c1)C(=O)NO	44%	–
CC[C@H](C)[C@H](NC(=O)c1cccc(-c2ccccc2Cl)c1)C(=O)NO	50%	–
CC[C@H](C)[C@H](NS(=O)(=O)c1cccc(-c2cc(Cl)ccc2Cl)c1)C(=O)NO	29%	–
CC[C@H](C)[C@H](NS(=O)(=O)c1cccc(-c2ccc([N+](=O)[O-])cc2)c1)C(=O)NO	41%	–
CC(C)C[C@@H](NS(=O)(=O)c1cccc(-c2cc3ccccc3o2)c1)C(=O)NO	86%	–
CC[C@H](C)[C@H](NS(=O)(=O)c1cccc(-c2ccccc2Cl)c1)C(=O)NO	50%	–
CC[C@H](C)[C@H](NC(=O)c1cccc(-c2cc3ccccc3o2)c1)C(=O)NO	80%	–
CC[C@H](C)[C@H](NC(=O)c1cccc(-c2ccco2)c1)C(=O)NO	58%	–
CC[C@H](C)[C@H](NC(=O)c1cccc(-c2cccc(Cl)c2)c1)C(=O)NO	64%	–
CC[C@H](C)[C@H](NS(=O)(=O)c1cccc(-c2cccc([N+](=O)[O-])c2)c1)C(=O)NO	34%	–
CC[C@H](C)[C@H](NS(=O)(=O)c1cccc(-c2cc3ccccc3o2)c1)C(=O)NO	61%	–
CC[C@H](C)[C@H](NC(=O)c1cccc(-c2cc(Cl)ccc2Cl)c1)C(=O)NO	68%	–
CC[C@H](C)[C@H](NS(=O)(=O)c1cccc(-c2c(Cl)cccc2Cl)c1)C(=O)NO	66%	–
CC(C)C[C@@H](NC(=O)c1cccc(-c2cc3ccccc3o2)c1)C(=O)NO	58%	–
CC[C@H](C)[C@H](NS(=O)(=O)c1cccc(-c2ccco2)c1)C(=O)NO	40%	–
CC[C@@H](C)[C@@H](NS(=O)(=O)c1cccc(-c2ccccc2Cl)c1)C(=O)NO	–	6.23
CC[C@@H](C)[C@@H](NC(=O)c1cccc(-c2cc3ccccc3o2)c1)C(=O)NO	16%	–
CC[C@@H](C)[C@@H](NS(=O)(=O)c1cccc(-c2cc3ccccc3o2)c1)C(=O)NO	94%	4.85
CC[C@H](C)[C@H](NS(=O)(=O)c1cccc(-c2ccc(Cl)cc2Cl)c1)C(=O)NO	48%	–
CC[C@H](C)[C@H](NS(=O)(=O)c1cccc(-c2ccoc2)c1)C(=O)NO	14%	–
O=C(NO)C1(NS(=O)(=O)c2cccc(-c3cc4ccccc4o3)c2)CC1	inactive	–
